Where a name gives a salt, the structure may show the parent alone. Read-outs that look alike come from different tables or passages of the source. Each block holds one molecule with its values, some of them ahead of it.
Columns and labels:
[1] = Investigation of the degradation rate (reactivity index) in solution; type: physicochemical; details: 1-% 0.01M hydrochloric acid in n-propanol, 45 to 60° C., HPLC; relative to Roquinimex defined to 1.0; index 2.0 = 26% per hour
Method: The degradation rate, hereinafter called the reactivity index, of compound of formula (I) was determined in solution. Roquinimex (Merck Index 12th Ed., No. 8418; Linomide®, LS2616, N-methyl-N-phenyl-1,2-dihydro-4-hydroxy-1-methyl-2-oxo-3-quinolinecarboxamide) was selected as a reference compound with the reactivity index defined to 1.0. A medium of 1-% 0.01M hydrochloric acid in n-propanol was selected. The reaction temperature was in the range of 45 to 60° C. The 3-quinolinecarboxamide derivative of formula (I) was added to the n-propanol solution. The reaction transfers the compound to an n-propylester. The reaction was stopped after 0, 2 and 4 hours, and analysis was carried out by means of HPLC with UV detection. The disappearance of the 3-quinolinecarboxamide derivative was used for evaluation of the reactivity index, but as an alternative also the formation of the n-propylester may be used. A reactivity index of […] at 60° C., a reactivity index of 2.0 corresponds to a degradation rate of 26% per hour etc.

[2] = Compatibility study, binary mixtures (1:1) of excipient and test substance; type: physicochemical
Excerpt: Generally, any tendency of instability is exacerbated when a compound of formula (II) is formulated with various excipients. It is clear that the salt form is preferred as drug substance in any binary mixtures of said compound.

[3] = type: physicochemical; details: for Degradation (percentage increase of related substances): 6 months
Method: Upon storage without any special precautions being taken, some 3-quinolinecarboxamide derivatives of formula (I) are degraded at an unacceptable rate. At storage during accelerated conditions, that is 40° C. and a relative humidity of 75%, the degradation of some 3-quinoline-carboxamide derivatives can exceed 2% in a period of 6 months (Table 1).
This is evident from a comparison of N-ethyl-N-phenyl-5-chloro-1,2-dihydro-4-hydroxy-1-methyl-2-oxo-3-quinolinecarboxamide (hereinafter called compound A) with the sodium salt of N-ethyl-N-phenyl-5-chloro-1,2-dihydro-4-hydroxy-1-methyl-2-oxo-3-quinolinecarboxamide (hereinafter called compound A sodium). While at 40° C. and a relative humidity of 75% less than 0.01% of compound A sodium in solid state is converted to degradation products in a period of 24 months, 0.31% of compound A is degraded during a 6-month period. Another example of a 3-quinolinecarboxamide derivative susceptible to degradation is N-ethyl-N-phenyl-5-ethyl-1,2-dihydro-4-hydroxy-1-methyl-2-oxo-3-quinolinecarboxamide (hereinafter called compound B), see Table 1.

[4] = Solubility in water at room temperature; type: physicochemical; details: for solubility: water
[5] = 1:1 mixture with Colloidal silica (Aerosil 200), +40° C./75% RH, 6 months
[6] = 1:1 mixture with Maize Starch, +40° C./75% RH, 6 months
[7] = 1:1 mixture with Mannitol (Pearlitol 200SD), +40° C./75% RH, 6 months
[8] = 1:1 mixture with Microcrystalline Cellulose (Avicel PH-, +40° C./75% RH, 6 months)

SMILES: CN(C(=O)c1c(O)c2c(Cl)cccc2n(C)c1=O)c1ccc(F)cc1F [Compound C, N-methyl-N-(2,4-difluorophenyl)-5-chloro-1,2-dihydro-4-hydroxy-1-methyl-2-oxo-3-quinolinecarboxamide]
- Reactivity index [1]: 2.6

SMILES: Cc1cccc2c1c(O)c(C(=O)N(C)c1ccc(C(F)(F)F)cc1)c(=O)n2C [Compound D, N-methyl-N-(4-trifluorophenyl)-1,2-dihydro-1,5-dimethyl-4-hydroxy-1-methyl-2-oxo-3-quinolinecarboxamide]
- Reactivity index [1]: >10

SMILES: CN(C(=O)c1c(O)c2ccccc2n(C)c1=O)c1ccccc1 [Roquinimex, N-methyl-N-phenyl-1,2-dihydro-4-hydroxy-1-methyl-2-oxo-3-quinolinecarboxamide, reference compound]
- Reactivity index [1]: 1.0

SMILES: CCN(C(=O)c1c(O)c2c(SC)cccc2n(C)c1=O)c1ccccc1 [Compound F, N-ethyl-N-phenyl-5-methylthio-1,2-dihydro-4-hydroxy-1-methyl-2-oxo-3-quinolinecarboxamide]
- Reactivity index [1]: >10

SMILES: CCc1cccc2c1c(O)c(C(=O)N(CC)c1ccccc1)c(=O)n2C.[Ca] [Example 6A, Crystalline N-Ethyl-N-phenyl-5-ethyl-1,2-dihydro-4-hydroxy-2-methyl-2-oxo-3-quinolinecarboxainide calcium salt]
- Solubility in water ([4]; room temperature): 300 µg/mL

SMILES: CCc1cccc2c1c(O)c(C(=O)N(CC)c1ccccc1)c(=O)n2C.[Li] [Example 5, N-Ethyl-N-phenyl-5-ethyl-1,2-dihydro-4-hydroxy-1-methyl-2-oxo-3-quinolinecarboxamide lithium salt]
- solubility ([4]; room temperature): 18000 µg/mL

SMILES: CCN(C(=O)c1c(O)c2c3c(ccc2n(C)c1=O)OCO3)c1ccccc1 [Compound E, N-ethyl-N-phenyl-5,6-methylenedioxy-1,2-dihydro-4-hydroxy-1-methyl-2-oxo-3-quinolinecarboxamide]
- Reactivity index [1]: 2.9

The remaining lines, values ahead:

- Degradation (percentage increase of related substances) [2, 5]: 20%
- Degradation (percentage increase of related substances) [2, 6]: 0.41%
- Degradation (percentage increase of related substances) [2, 7]: 0.45%
- Degradation (percentage increase of related substances) [2, 8]: 1.1%
- “Shelf-life” (storage time without degradation exceeding 0.5%) [3]: >6 months
- Degradation (percentage increase of related substances) [3]: 0.31%
- Reactivity index [1]: 3.1
SMILES: CCN(C(=O)c1c(O)c2c(Cl)cccc2n(C)c1=O)c1ccccc1 [Compound A, N-ethyl-N-phenyl-5-chloro-1,2-dihydro-4-hydroxy-1-methyl-2-oxo-3-quinolinecarboxamide]

- Solubility in water (in words) [4]: sparingly soluble in water
- solubility ([4]; room temperature): ~1000 µg/mL
SMILES: CCN(C(=O)c1c(O)c2c(Cl)cccc2n(C)c1=O)c1ccccc1 [Example 3, N-Ethyl-N-phenyl-5-chloro-1,2-dihydro-4-hydroxy-1-methyl-2-oxo-3-quinolinecarboxamide calcium salt]

- Degradation (percentage increase of related substances) [2, 5]: 1.5%
- Degradation (percentage increase of related substances) [2, 6]: 0.05%
- Degradation (percentage increase of related substances) [2, 7]: 0.05%
- Degradation (percentage increase of related substances) [2, 8]: 0.31%
- “Shelf-life” (storage time without degradation exceeding 0.5%) [3]: >6 months
- Degradation (percentage increase of related substances) [3]: <0.01%^3
- Converted to degradation products ([3]; 24 months): less than 0.01%
- solubility ([4]; room temperature): 138000 µg/mL
SMILES: CCN(C(=O)c1c(O)c2c(Cl)cccc2n(C)c1=O)c1ccccc1.[Na] [Compound A sodium, N-Ethyl-N-phenyl-5-chloro-1,2-dihydro-4-hydroxy-1-methyl-2-oxo-3-quinolinecarboxamide sodium salt]

- “Shelf-life” (storage time without degradation exceeding 0.5%) [3]: <1 months
- Degradation (percentage increase of related substances) [3]: 2.0%
- Reactivity index [1]: 4.6
SMILES: CCc1cccc2c1c(O)c(C(=O)N(CC)c1ccccc1)c(=O)n2C [Compound B, N-ethyl-N-phenyl-5-ethyl-1,2-dihydro-4-hydroxy-1-methyl-2-oxo-3-quinolinecarboxamide]

- solubility ([4]; room temperature): 300 µg/mL
SMILES: CCc1cccc2c1c(O)c(C(=O)N(CC)c1ccccc1)c(=O)n2C [Example 7, N-Ethyl-N-phenyl-5-ethyl-1,2-dihydro-4-hydroxy-1-methyl-2-oxo-3-quinolinecarboxamide zinc salt]

Source: patent US8754104B2, “Crystalline salts of quinoline compounds and methods for preparing them” (Active Biotech AB, priority 2004, dated 2014)
